Tests used:
Assay type in all cases: cell-based
Nav1.5 = target: T1, Nav1.5 (Homo sapiens, UniProt Q14524); test: Inhibition of Nav1.5 as measured using QPatch
T1 construct: expressed in transfected cells
From the text: (§1) Patch-clamp electrophysiology is considered the gold standard technique for investigation of ion channel function and pharmacology. Using this method, sodium channel currents can be measured in cells, which stably (or transiently) express the sodium channel subtype of interest. Application of compounds during such experiments provides a functional measure of the activity and potency of compounds affecting the ion channel of interest.
(§2) Electrophysiological studies can be performed using automated or manual patch-clamp techniques. Automated patch-clamp instruments suitable for this work include the Ion Works HT (MDS), Ion Works Quattro (MDS), PatchLiner (Nanion technologies), Port-A-Patch (Nanion technologies), QPatch (Sophion) or any other suitable platform.
(§3) For recording in automated patch-clamp instruments, cells expressing the voltage-gated sodium channel subtype of interest are dispensed in appropriate chips (plates with more than one recording chambers each containing one or more apertures to generate whole-cell patches), as provided by the manufacturer. Typically, the whole-cell perforated patch configuration is used for probing the pharmacology of compounds in automated patch-clamp electrophysiology on sodium channels. Extracellular and intracellular buffers for such experiments are composed according to the literature, or according to the instructions provided by the manufacturer of the instruments. Test solutions, which contain the compounds to be tested, are applied to the cells expressing the sodium channel of interest by a pipetting system, typically integrated into the robots.
(§4) A suitable voltage stimulus protocol is used to activate voltage-gated sodium channel proteins of interest. A typical stimulus protocol may consist of sweeps of sequential voltage pulses starting from a holding potential (i.e. −65 mV), to a more positive and depolarising test pulse potential (i.e. −10 mV) and finally to a more negative and hyperpolarising potential (i.e. −100 mV). According to the biophysics of the voltage-gated ion channel of interest and interest in channel configuration the voltages and durations of the pulses as well as the overall frequency of sweeps applied might vary. Accordingly, a stimulus protocol was designed to assess compounds due to their potential to block NaV1.7 channels primarily in inactivated state. Selectivity over other voltage-gated sodium channel members was assessed by protocols that reflect the native function of the channels (i.e. heart rate or firing of neurons).
Inhibition of Nav1.5 by Compounds of formula (I) as measured using QPatch

Nav 1.7 [1] = target: T2, Nav 1.7 (Homo sapiens, UniProt Q15858); test: Whole-cell voltage clamp electrophysiology, automated patch clamp (marker c in Table of Examples); settings: marker c: Automated patch clamp data; read-out: Nav 1.7 activity
T2 construct: expressed in transfected cells
T2 sequence (Q15858 whole entry): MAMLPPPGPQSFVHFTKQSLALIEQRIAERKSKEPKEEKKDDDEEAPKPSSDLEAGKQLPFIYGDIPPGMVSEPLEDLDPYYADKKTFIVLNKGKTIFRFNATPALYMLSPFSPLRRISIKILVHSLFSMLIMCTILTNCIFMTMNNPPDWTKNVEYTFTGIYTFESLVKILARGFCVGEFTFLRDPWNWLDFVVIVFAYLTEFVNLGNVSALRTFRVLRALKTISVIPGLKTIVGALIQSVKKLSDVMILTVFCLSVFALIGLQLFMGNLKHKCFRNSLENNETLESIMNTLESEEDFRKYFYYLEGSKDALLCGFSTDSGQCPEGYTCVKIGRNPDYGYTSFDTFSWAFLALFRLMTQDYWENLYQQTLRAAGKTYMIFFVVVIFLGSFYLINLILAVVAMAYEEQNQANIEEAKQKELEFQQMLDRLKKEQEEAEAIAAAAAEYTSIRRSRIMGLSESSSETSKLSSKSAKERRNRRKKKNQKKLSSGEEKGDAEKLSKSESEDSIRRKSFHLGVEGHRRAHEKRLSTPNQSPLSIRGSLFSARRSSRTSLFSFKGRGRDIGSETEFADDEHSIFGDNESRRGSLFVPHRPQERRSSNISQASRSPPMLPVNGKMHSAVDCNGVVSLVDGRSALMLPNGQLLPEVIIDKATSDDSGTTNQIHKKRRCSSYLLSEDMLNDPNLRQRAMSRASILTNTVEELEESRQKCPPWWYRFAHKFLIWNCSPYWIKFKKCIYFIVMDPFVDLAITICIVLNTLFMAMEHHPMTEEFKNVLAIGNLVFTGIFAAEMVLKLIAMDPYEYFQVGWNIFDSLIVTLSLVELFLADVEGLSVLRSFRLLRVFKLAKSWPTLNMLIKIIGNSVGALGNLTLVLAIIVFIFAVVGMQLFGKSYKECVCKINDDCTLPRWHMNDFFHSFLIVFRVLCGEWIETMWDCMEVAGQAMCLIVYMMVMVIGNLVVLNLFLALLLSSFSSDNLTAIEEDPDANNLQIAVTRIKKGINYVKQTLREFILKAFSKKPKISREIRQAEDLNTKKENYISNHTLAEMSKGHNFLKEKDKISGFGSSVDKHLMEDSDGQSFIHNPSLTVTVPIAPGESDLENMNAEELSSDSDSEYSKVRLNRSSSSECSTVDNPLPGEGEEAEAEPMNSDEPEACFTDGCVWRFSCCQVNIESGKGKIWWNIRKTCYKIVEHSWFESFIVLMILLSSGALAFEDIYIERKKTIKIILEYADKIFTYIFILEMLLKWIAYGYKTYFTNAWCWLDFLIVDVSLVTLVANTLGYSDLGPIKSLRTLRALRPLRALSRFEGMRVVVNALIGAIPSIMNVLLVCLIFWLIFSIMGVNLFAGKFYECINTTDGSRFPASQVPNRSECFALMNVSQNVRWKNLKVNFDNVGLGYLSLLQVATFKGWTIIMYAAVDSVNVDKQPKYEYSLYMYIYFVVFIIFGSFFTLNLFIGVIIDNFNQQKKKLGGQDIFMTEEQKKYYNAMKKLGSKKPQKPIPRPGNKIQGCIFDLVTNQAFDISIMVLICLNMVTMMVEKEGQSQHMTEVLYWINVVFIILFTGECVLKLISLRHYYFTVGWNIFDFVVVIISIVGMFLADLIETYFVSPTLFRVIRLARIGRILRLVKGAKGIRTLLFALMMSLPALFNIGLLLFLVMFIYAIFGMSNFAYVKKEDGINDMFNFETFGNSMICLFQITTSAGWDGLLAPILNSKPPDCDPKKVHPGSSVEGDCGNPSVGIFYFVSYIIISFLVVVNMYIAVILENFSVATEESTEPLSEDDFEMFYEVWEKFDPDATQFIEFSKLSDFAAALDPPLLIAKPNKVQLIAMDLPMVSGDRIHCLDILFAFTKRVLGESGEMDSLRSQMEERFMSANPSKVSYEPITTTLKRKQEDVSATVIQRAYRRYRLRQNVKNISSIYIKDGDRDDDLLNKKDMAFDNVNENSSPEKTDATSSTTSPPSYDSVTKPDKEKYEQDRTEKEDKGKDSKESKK
Method in brief: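 A voltage protocol weighted toward inactivated-state block was used to test compounds on stably expressing cells, with pulses from −65 mV holding to −10 mV test and −100 mV. Currents came from whole-cell automated patch-clamp recordings, either IonWorks Quattro or other automated instruments, usually in perforated-patch mode.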

Nav 1.7 [2] = target: T2, Nav 1.7; test: Whole-cell voltage clamp electrophysiology, IonWorks Quattro (marker a in Table of Examples); settings: marker a: IonWork Quattro data; read-out: Nav 1.7 activity
From the text: a.IonWork Quattro data, b=Manual patch clamp data, c=Automated patch clamp data M=Method
Whole-Cell Voltage Clamp Electrophysiology Assay
as §1, §2, §3, §4

Nav 1.7 [3] = target: T2, Nav 1.7; test: Whole-cell voltage clamp electrophysiology, manual patch clamp (marker b in Table of Examples); settings: marker b: Manual patch clamp data; read-out: Nav 1.7 activity
Method in brief: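 Manual whole-cell patch clamp on cells expressing human NaV1.7, compounds applied by microperfusion. Protocol biased to inactivated-state block: holding −60 mV, hyperpolarizing step −120 mV for 100 ms, then depolarization to −20 mV for 25 ms, pulses at 0.1 Hz.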

T1 sequence (Q14524 whole entry): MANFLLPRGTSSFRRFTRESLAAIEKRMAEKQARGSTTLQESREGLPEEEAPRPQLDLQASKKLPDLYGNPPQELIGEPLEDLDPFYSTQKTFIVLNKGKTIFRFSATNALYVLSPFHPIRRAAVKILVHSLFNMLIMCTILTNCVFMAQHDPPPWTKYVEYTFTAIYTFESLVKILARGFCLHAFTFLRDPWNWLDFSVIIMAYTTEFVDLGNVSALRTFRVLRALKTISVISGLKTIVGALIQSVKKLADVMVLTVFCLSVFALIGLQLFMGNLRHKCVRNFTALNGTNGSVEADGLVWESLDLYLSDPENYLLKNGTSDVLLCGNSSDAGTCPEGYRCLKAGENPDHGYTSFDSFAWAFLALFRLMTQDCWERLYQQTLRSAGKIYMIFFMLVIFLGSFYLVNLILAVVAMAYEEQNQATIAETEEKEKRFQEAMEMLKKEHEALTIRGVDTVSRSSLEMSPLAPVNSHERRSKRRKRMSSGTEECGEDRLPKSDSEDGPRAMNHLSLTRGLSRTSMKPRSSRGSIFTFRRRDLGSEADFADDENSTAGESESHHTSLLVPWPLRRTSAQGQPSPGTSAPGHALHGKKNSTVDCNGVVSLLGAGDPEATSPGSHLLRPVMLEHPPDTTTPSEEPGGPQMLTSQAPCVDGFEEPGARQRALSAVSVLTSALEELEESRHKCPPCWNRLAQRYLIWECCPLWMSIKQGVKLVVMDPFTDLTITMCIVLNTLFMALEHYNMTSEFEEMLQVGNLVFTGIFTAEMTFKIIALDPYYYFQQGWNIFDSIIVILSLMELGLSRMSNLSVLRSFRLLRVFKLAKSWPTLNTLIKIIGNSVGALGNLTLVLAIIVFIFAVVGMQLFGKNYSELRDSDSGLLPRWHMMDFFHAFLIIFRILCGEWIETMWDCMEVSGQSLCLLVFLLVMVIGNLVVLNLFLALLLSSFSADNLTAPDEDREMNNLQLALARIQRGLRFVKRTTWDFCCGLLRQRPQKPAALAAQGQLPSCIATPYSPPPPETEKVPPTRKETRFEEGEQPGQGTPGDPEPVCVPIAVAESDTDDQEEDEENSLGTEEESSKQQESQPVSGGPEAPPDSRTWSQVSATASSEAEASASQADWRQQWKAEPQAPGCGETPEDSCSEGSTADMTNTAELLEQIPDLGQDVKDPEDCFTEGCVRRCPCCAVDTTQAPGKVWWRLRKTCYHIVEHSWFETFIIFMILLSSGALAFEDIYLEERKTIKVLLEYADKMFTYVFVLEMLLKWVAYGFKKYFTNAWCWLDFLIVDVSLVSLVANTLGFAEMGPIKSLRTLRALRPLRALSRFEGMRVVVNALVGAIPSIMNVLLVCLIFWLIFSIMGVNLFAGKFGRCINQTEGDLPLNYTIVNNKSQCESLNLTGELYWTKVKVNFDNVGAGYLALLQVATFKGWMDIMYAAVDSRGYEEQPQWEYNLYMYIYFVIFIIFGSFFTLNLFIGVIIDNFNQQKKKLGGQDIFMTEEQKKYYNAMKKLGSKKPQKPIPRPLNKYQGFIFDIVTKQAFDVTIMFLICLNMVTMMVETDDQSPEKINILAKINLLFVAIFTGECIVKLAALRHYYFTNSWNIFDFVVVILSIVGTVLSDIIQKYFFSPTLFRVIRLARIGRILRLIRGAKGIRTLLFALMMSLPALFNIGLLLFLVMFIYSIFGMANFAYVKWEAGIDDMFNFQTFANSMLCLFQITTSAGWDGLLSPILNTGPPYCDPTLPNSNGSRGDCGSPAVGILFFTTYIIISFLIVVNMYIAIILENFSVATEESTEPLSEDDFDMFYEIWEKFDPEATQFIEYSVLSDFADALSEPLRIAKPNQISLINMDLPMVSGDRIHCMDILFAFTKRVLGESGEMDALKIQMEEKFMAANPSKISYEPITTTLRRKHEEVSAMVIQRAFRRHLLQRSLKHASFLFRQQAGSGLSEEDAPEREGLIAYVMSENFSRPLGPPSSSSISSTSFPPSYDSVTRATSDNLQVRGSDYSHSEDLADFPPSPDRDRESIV

SMILES | IC50 (Nav 1.7 [1]) [nM] | IC50 (Nav 1.7 [2]) [nM] | IC50 (Nav 1.7 [3]) [nM] | IC50 (Nav1.5) [nM]
Nc1nc(Nc2ccccc2)nc(-c2noc(-c3ccc(OCC(F)(F)F)nc3)n2)n1 [Example 41, 2-N-Phenyl-6-{5-[6-(2,2,2-trifluoroethoxy)pyridin-3-yl]-1,2,4-oxadiazol-3-yl}-1,3,5-triazine-2,4-diamine] | 673 | – | – | 334
Nc1nc(-c2noc(-c3ccco3)n2)nc(N2CCc3ccccc32)n1 [Example 22, 4-(2,3-Dihydro-indol-1-yl)-6-(5-furan-2-yl-[1,2,4]oxadiazol-3-yl)-[1,3,5]triazin-2-ylamine] | – | < 1000 | – | –
CN(c1nc(N)nc(-c2noc(-c3ccco3)n2)n1)c1ccccc1Cl [Example 17, N-(2-Chloro-phenyl)-6-(5-furan-2-yl-[1,2,4]oxadiazol-3-yl)-N-methyl-[1,3,5]triazine-2,4-diamine] | – | < 5000 | – | –
Nc1nc(Nc2cccc(Cl)c2)nc(-c2noc(-c3ccco3)n2)n1 [Example 32, N-(3-Chloro-phenyl)-6-(5-furan-2-yl-[1,2,4]oxadiazol-3-yl)-[1,3,5]triazine-2,4-diamine] | – | < 500 | – | –
Nc1nc(Nc2ccccc2)nc(-c2noc(-c3ccccn3)n2)n1 [Example 39, N-Phenyl-6-(pyridin-2-yl-[1,2,4]oxadiazol-3-yl)-[1,3,5]triazine-2,4-diamine] | – | – | 319 | 891
Cc1ccccc1N(C)c1nc(N)nc(-c2noc(-c3ccco3)n2)n1 [Example 18, 6-(5-Furan-2-yl-[1,2,4]oxadiazol-3-yl)-N-methyl-N-o-tolyl-[1,3,5]triazine-2,4-diamine] | – | < 5000 | – | –
Cc1ccc(-c2nc(-c3nc(N)nc(N(C)c4ccccc4)n3)no2)o1 [Example 19, N-Methyl-6-[5-(5-methyl-furan-2-yl)-[1,2,4]oxadiazol-3-yl]-N-phenyl-[1,3,5]triazine-2,4-diamine] | – | 61 | – | –

Now from value to molecule, other results behind:

IC50 (Nav 1.7 [1]) [nM] | IC50 (Nav 1.7 [2]) [nM] | IC50 (Nav 1.7 [3]) [nM] | SMILES | IC50 (Nav1.5) [nM]
288 | – | – | CN(c1ccccc1)c1nc(N)nc(-c2noc(C(=O)NC3CCCC3)n2)n1 [Example 72, 3-[4-Amino-6-(methyl-phenyl-amino)-[1,3,5]triazin-2-yl]-[1,2,4]oxadiazole-5-carboxylic acid cyclopentylamide] | 5960
– | – | 814 | CN(c1ccccc1)c1nc(N)nc(-c2noc(C(=O)NCc3ccccc3)n2)n1 [Example 71, 3-[4-Amino-6-(methyl-phenyl-amino)-[1,3,5]triazin-2-yl]-[1,2,4]oxadiazole-5-carboxylic acid benzylamide] | 3020
102 | – | – | CN(c1ccccc1)c1nc(N)nc(-c2noc(-c3ncccc3Br)n2)n1 [Example 43, 6-[5-(3-Bromopyridin-2-yl)-[1,2,4]oxadiazol-3-yl]-N-methyl-N-phenyl-[1,3,5]triazine-2,4-diamine] | 1030
